This passage reports IC50 results from patent publication US9102670B2, “Pyrido-, pyrazo- and pyrimido-pyrimidine derivatives as mTOR inhibitors” (KuDOS Pharmaceuticals Limited, priority 2006, dated 2015).

The first experiment concerns phosphorylation of Serine 473 in Akt. Kind of experiment: In Vitro Phospho-Ser473 Akt Assay in MDA-MB-468 cells. The conditions noted are these: Homo sapiens, MDA-MB-468, read-out: IC50 values against mTOR, phospho-Ser473 Akt assay, MDA-MB-468 cells. Format: cell-based.
Regarding `C[C@H]1COCCN1c1nc(N2CCOC[C@@H]2C)c2ccc(-c3cccc(CNc4cc[nH]n4)c3)nc2n1` [Example 4p], the 50% inhibitory concentration (IC50) (as a rule, the concentration at which inhibition is half-maximal) was under 300 nM. Same read-out and setting: in the case of `C[C@H]1COCCN1c1nc(N2CCOC[C@@H]2C)c2ccc(-c3cccc(Cn4ccnc4)c3)nc2n1` [Example 4q] it was under 300 nM.

For the compound `C[C@H]1COCCN1c1nc(N2CCOC[C@@H]2C)c2ccc(-c3cccc(CN4CC[C@@H](O)C4)c3)nc2n1` [Example 4r], the half-maximal inhibitory concentration (IC50) is under 100 nM. Same read-out and setting: the figure for `C[C@H]1COCCN1c1nc(N2CCOC[C@@H]2C)c2ccc(-c3cccc(CN4CC[C@H](O)C4)c3)nc2n1` [Example 4s] is under 100 nM; for `C[C@H]1COCCN1c1nc(N2CCOC[C@@H]2C)c2ccc(-c3ccc(F)c(CN)c3)nc2n1` [Example 4u] it is under 100 nM. Still for that read-out and setting: the figure for `CC(C)NCc1cc(-c2ccc3c(N4CCOC[C@@H]4C)nc(N4CCOC[C@@H]4C)nc3n2)ccc1F` [Example 4w] is under 100 nM; for `CNCc1cc(-c2ccc3c(N4CCOC[C@@H]4C)nc(N4CCOC[C@@H]4C)nc3n2)ccc1F` [Example 4x] it is under 100 nM; for `C[C@H]1COCCN1c1nc(N2CCOC[C@@H]2C)c2ccc(-c3ccc(F)c(CNC4CCOCC4)c3)nc2n1` [Example 4y] it is under 100 nM. For the compound `C[C@H]1COCCN1c1nc(N2CCOC[C@@H]2C)c2ccc(-c3ccc(F)c(CNCC4CC4)c3)nc2n1` [Example 4z], the half-maximal inhibitory concentration (IC50) is under 100 nM. Still for that read-out and setting: the figure for `CC(=O)NCc1cccc(-c2ccc3c(N4CCOC[C@@H]4C)nc(N4CCOC[C@@H]4C)nc3n2)c1` [Example 5a] is under 100 nM; for `COCC(=O)NCc1cccc(-c2ccc3c(N4CCOC[C@@H]4C)nc(N4CCOC[C@@H]4C)nc3n2)c1` [Example 5b] it is under 300 nM; for `C[C@H]1COCCN1c1nc(N2CCOC[C@@H]2C)c2ccc(-c3cccc(CNC(=O)C4CC4)c3)nc2n1` [Example 5c] it is under 300 nM. Still for that read-out and setting: the figure for `C[C@H]1COCCN1c1nc(N2CCOC[C@@H]2C)c2ccc(-c3cccc(CNC(=O)C4CCC4)c3)nc2n1` [Example 5e] is under 300 nM. In the case of `C[C@H]1COCCN1c1nc(N2CCOC[C@@H]2C)c2ccc(-c3cccc(CNC(=O)C(F)(F)F)c3)nc2n1` [Example 5g], the IC50 is under 300 nM. On the same count and under the same terms, the figure for `C[C@H]1COCCN1c1nc(N2CCOC[C@@H]2C)c2ccc(-c3cccc(CN(C)C(=O)C(F)(F)F)c3)nc2n1` [Example 5n] is under 300 nM; for `CC(=O)NCc1ccc(-c2ccc3c(N4CCOC[C@@H]4C)nc(N4CCOC[C@@H]4C)nc3n2)cc1` [Example 5q] it is under 100 nM. In the case of `COCC(=O)N(C)Cc1ccc(-c2ccc3c(N4CCOC[C@@H]4C)nc(N4CCOC[C@@H]4C)nc3n2)cc1` [Example 5s], the IC50 was under 300 nM. On the same count and under the same terms, the figure for `C[C@H]1COCCN1c1nc(N2CCOC[C@@H]2C)c2ccc(-c3ccc(F)c(CNC(=O)C4CC4)c3)nc2n1` [Example 5v] is under 300 nM. `C[C@H]1COCCN1c1nc(N2CCOC[C@@H]2C)c2ccc(-c3ccoc3CO)nc2n1` [Example 6a]: the concentration for half-maximal inhibition (IC50) is under 300 nM. Still for that read-out and setting: the figure for `CNCc1ccc(-c2ccc3c(N4CCOC[C@@H]4C)nc(N4CCOC[C@@H]4C)nc3n2)o1` [Example 7c] is under 100 nM. The same measure, in the same setting: in the case of `CCNCc1ccc(-c2ccc3c(N4CCOC[C@@H]4C)nc(N4CCOC[C@@H]4C)nc3n2)o1` [Example 7d] it was under 100 nM; in that of `C[C@H]1COCCN1c1nc(N2CCOC[C@@H]2C)c2ccc(-c3ccc(CNC4CCOCC4)o3)nc2n1` [Example 7f], under 100 nM; in that of `C[C@H]1COCCN1c1nc(N2CCOC[C@@H]2C)c2ccc(-c3ccc(CNCC4CC4)o3)nc2n1` [Example 7g], under 100 nM. Still for that read-out and setting: in the case of `CC(C)NCc1ccc(-c2ccc3c(N4CCOC[C@@H]4C)nc(N4CCOC[C@@H]4C)nc3n2)o1` [Example 7k] it was under 100 nM; in that of `C[C@H]1COCCN1c1nc(N2CCOC[C@@H]2C)c2ccc(-c3cccc(C(=O)NCCO)c3)nc2n1` [Example 8a], under 100 nM. Turning to `COc1ccc(-c2ccc3c(N4CCOC[C@@H]4C)nc(N4CCOC[C@@H]4C)nc3n2)cc1C(=O)NCCO` [Example 8b], the IC50 is under 100 nM. On to `COCc1cc(-c2ccc3c(N4CCOC[C@@H]4C)nc(N4CCOC[C@@H]4C)nc3n2)ccc1F` [Example 9a], for which the IC50 is under 300 nM. The same measure, in the same setting: in the case of `C[C@@H]1CN(c2nc(N3CCOC[C@@H]3C)c3ncc(-c4ccccc4)nc3n2)C[C@H](C)O1` [Example 12a] it was under 100 nM; in that of `Cc1ccc(-c2cnc3c(N4CCOC[C@@H]4C)nc(N4CCOC[C@@H]4C)nc3n2)cc1` [Example 12c], under 100 nM; in that of `C[C@H]1COCCN1c1nc(N2CCOC[C@@H]2C)c2ncc(-c3ccccc3)nc2n1` [Example 12d], under 300 nM. Turning to `C[C@H]1COCCN1c1nc(N2CCOC[C@@H]2C)c2ccc(-c3ccc(OCCN(C)C)nc3)nc2n1` [Example 13b], the half-maximal inhibitory concentration (IC50) was under 300 nM. On the same count and under the same terms, in the case of `COc1ccc(-c2ccc3c(N4CCOC[C@@H]4C)nc(N4CCOC[C@@H]4C)nc3n2)cc1C(N)=O` [Example 14b] it was under 100 nM.

The experiment is the same for the next values; noted with them: Homo sapiens, MDA-MB-468, read-out: IC50 values against mTOR, phospho-Ser473 Akt assay, MDA-MB-468 cells, upper bound.
Consider `C[C@H]1COCCN1c1nc(N2CCOC[C@@H]2C)c2ccc(-c3cccc(CS(C)(=O)=O)c3)nc2n1` [Example 4t], for which the half-maximal inhibitory concentration (IC50) was under 1000 nM.

On to `C[C@H]1COCCN1c1nc(N2CCOC[C@@H]2C)c2ccc(-c3ccc(F)c(CNC4CC4)c3)nc2n1` [Example 4v], for which the IC50 was under 1000 nM. `CC(C)C(=O)NCc1cccc(-c2ccc3c(N4CCOC[C@@H]4C)nc(N4CCOC[C@@H]4C)nc3n2)c1` [Example 5d]: the IC50 was under 1000 nM. Same read-out and setting: the figure for `CC(C)CC(=O)NCc1cccc(-c2ccc3c(N4CCOC[C@@H]4C)nc(N4CCOC[C@@H]4C)nc3n2)c1` [Example 5f] is under 1000 nM; for `CC(=O)N(C)Cc1ccc(-c2ccc3c(N4CCOC[C@@H]4C)nc(N4CCOC[C@@H]4C)nc3n2)cc1` [Example 5r] it is under 1000 nM.

As to `CC(=O)NCc1cc(-c2ccc3c(N4CCOC[C@@H]4C)nc(N4CCOC[C@@H]4C)nc3n2)ccc1F` [Example 5t], the IC50 was under 1000 nM. For the compound `COCC(=O)NCc1cc(-c2ccc3c(N4CCOC[C@@H]4C)nc(N4CCOC[C@@H]4C)nc3n2)ccc1F` [Example 5u], the IC50 was under 1000 nM. On the same count and under the same terms, in the case of `CC(C)C(=O)NCc1cc(-c2ccc3c(N4CCOC[C@@H]4C)nc(N4CCOC[C@@H]4C)nc3n2)ccc1F` [Example 5w] it was under 1000 nM. On the same count and under the same terms, in the case of `C[C@H]1COCCN1c1nc(N2CCOC[C@@H]2C)c2ccc(-c3ccc(F)c(CNC(=O)C4CCC4)c3)nc2n1` [Example 5x] it was under 1000 nM; in that of `CC(C)CC(=O)NCc1cc(-c2ccc3c(N4CCOC[C@@H]4C)nc(N4CCOC[C@@H]4C)nc3n2)ccc1F` [Example 5y], under 1000 nM. Still for that read-out and setting: in the case of `C[C@H]1COCCN1c1nc(N2CCOC[C@@H]2C)c2ccc(-c3ccc(F)c(CNC(=O)C(F)(F)F)c3)nc2n1` [Example 5z] it was under 1000 nM; in that of `C[C@H]1COCCN1c1nc(N2CCOC[C@@H]2C)c2ccc(-c3ccc(CNC4CC4)o3)nc2n1` [Example 7e], under 1000 nM. With `C[C@H]1COCCN1c1nc(N2CCOC[C@@H]2C)c2ccc(-c3ccc(CNc4cc[nH]n4)o3)nc2n1` [Example 7i], the IC50 was under 1000 nM. The same measure, in the same setting: the figure for `C[C@H]1COCCN1c1nc(N2CCOC[C@@H]2C)c2ccc(-c3ccc(CNCC(N)=O)o3)nc2n1` [Example 7j] is under 1000 nM; for `Cc1ccc(-c2cnc3c(N4CCOC[C@@H]4C)nc(N4C[C@@H](C)O[C@@H](C)C4)nc3n2)cc1` [Example 12b] it is under 1000 nM.
